From patent publication US20230277669A1, “USES OF UROLITHINS” (Amazentis SA, priority 2022, published 2023)

Key:
[1] = commercially-available supplements containing urolithin A; cited from earlier work
Pink1^-/- CD8^+ T cells = assay: In vitro stimulation of Pink1-/- T cells in presence of UA; type: cell-based, Pink1^-/- mice
Description: (FIG. 4A) Scheme of CD3+ T-cell activation and analysis for various timepoints in order to investigate mitophagy induction in vitro. (FIG. 4B) Analysis of mitochondrial membrane potential within CD8+ T cells, with TMRM^lo representing cells with low mitochondrial membrane potential. Analysis was performed six hours after stimulation with aCD/aCD28 stimulation beads at the presence of the indicated treatments. N=4 per group, *p < 0.05 by Mann Whitney U test. One of two independent experiments are shown. (FIG. 4C) Representative flow histogram and quantification of lysosome formation in CD8+ cells six hours after in vitro stimulation. MFI shown relative to DMSO controls, n=4. Data are normalised mean ± SD, statistical analysis by two-sided t-test. One out of two independent experiments are shown. (FIG. 4D) Mitotracker Red staining of in vitro stimulated CD8+ cells after 24 hours of Urolithin A (UA25 n=6; UA50 n=6) or vehicle control treatment (DMSO: n=4). A representative flow histogram depicting identification of Mitotracker^hi cells is shown. Data are mean ± SD, statistical analysis was performed by two-sided t-test (*p < 0.05; ***p <0.001; ****p < 0.0001). Experiment was repeated twice. (FIG. 4E) Subset-specific identification of Mitotracker red accumulation after 24 hours of in vitro stimulation either with vehicle control (DMSO) or 50 µM Urolithin A (n=5). Subsets were identified was depicted in the FIGS. 7-9. Data are mean ± SD, statistical analysis by two-sided t-test (* p<0.05, *** p<0.001 and **** p<0.0001). (FIG. 4F) qPCR analysis of various autophagy/mitophagy associated genes of in vitro activated CD3+ cells, 24 h after activation (n=3). Data are ± SEM, statistical analysis was performed by two-sided t-test (*p < 0.05,**p < 0.01). Overall p value is given for the comparison over the entire panel of genes after two-way ANOVA test. (FIG. 4G) Western blot of Parkin protein expression in UA or DMSO (n=3) treated cells after 24 h. Cells were stimulated at the presence of plate-bound aCD3/aCD28 antibodies. […] (FIG. 4H) CD8+ cells from Pink1^-/- mice display deficient mitophagy upon UA treatment in vitro: Lysosome formation in CD8+ of Pink1^-/- mice as assessed by Lysotracker staining 6h post stimulation at the presence of UA or DMSO (n=4). Data are mean ± SD, one out of two independent experiments are shown. (FIG. 4I) CD8+ cells from Pink1^-/- mice display deficient mitophagy upon UA treatment in vitro: Mitotracker red staining of Pink1^-/- CD8+ stimulated in vitro for 48 h, either in the presence of UA or DMSO (n=4). Percentage of Mitotracker^hi CD8+ cells are shown. Data are mean ± SD and acquired via flow cytometry. One out of two independent experiments are shown. Statistical analysis was performed by two-sided t-test (n.s., not significant). (FIG. 4J) CD8+ cells from Pink^-/- mice fail to reprogram to TSCM after UA exposure in vitro: TSCM formation in Pink1^-/- CD8+ cells 48 h after stimulation in the presence of UA (25 µM and 50 µM) and DMSO (n=4, respectively). Data are mean ± SD, statistical analysis was performed by two-sided t-test (***p <0.001). Data depicts results of three independent experiments. (FIG. 4K) Expression of TCF1 in naïve-like CD62L^+CD44^-CD8^+ Pink1^-/- cells. Data are ± SD, depicted as MFI (***p <0.001 by two-sided t-test). (FIG. 4L) Growth curve of Pink1^-/- mice s.c. injected with APTK-organoids, fed UA-rich or control diet as depicted in FIG. 1J. n=4 per group. Data are mean ± SD. (FIG. 4M) Flow cytometry analysis of TIL in Pink ^-^/- mice s.c. transplanted with APTK tumors, fed either UA or control diet. Quantification of TCF1^hi cells among CD8. (FIG. 4N) Quantification of PD1^hi cells among CD8. (FIG. 4O) Quantification of and Tim3^hi cells among CD8. (FIG. 4P) Ex vivo cytokine release assay. TIL of Pink1^-/- from FIG. 4L were stimulated ex vivo with PMA and lonomycin, in the presence of Brefeldin A for three hours. Data depicts percentage of TNFα^hi cells within the CD8+ compartment. All data are mean ± SD (n=4). […]

O=c1oc2cc(O)ccc2c2ccc(O)cc12 [Urolithin A]
bioavailability profile [1]: favourable bioavailability profile | safety [1]: deemed safe | TCF-1 in CD44-CD62L+CD8+ T cells (Pink1^-/- CD8^+ T cells): expressed less TCF-1 | cytoplasmic expression of Pgam5 (Pink1^-/- CD8^+ T cells; 6 h, upon UA exposure): lack of cytoplasmic expression of Pgam5 | UA-induced lysosome formation (Pink1^-/- CD8^+ T cells; 6h post stimulation): prevented | PGC-1α expression (Pink1^-/- CD8^+ T cells; 48 h): failed to enhance | UA-induced decrease in mitochondrial content (Pink1^-/- CD8^+ T cells; 48 h): prevented | TSCM phenotype (Pink1^-/- CD8^+ T cells; 48 h, UA 25 µM and 50 µM): failed to exhibit a TSCM phenotype
